Experiments:
in vitro [1] = conditions: human, liver microsomes
in vitro [2] = conditions: rat, liver microsomes
[3] = Oral bioavailability in rat at 1 mg/kg administered as suspension; format: ADME, organism-based; conditions: in vivo
[4] = Dose normalized AUC in rat at 1 mg/kg, po administered as suspension; format: ADME, organism-based; conditions: in vivo
in vivo [5] = conditions: rat, iv, 1 mg/kg
in vitro [6] = conditions: human, hepatocytes
in vitro [7] = conditions: rat, hepatocytes
in vitro [8] = conditions: dog, MDCK
[9] = Dose normalized AUC in rat at 5 mg/kg, po administered as suspension; format: ADME, organism-based; conditions: in vivo
in vivo [10] = conditions: rat, po, 5 mg/kg

SMILES: CC1=C(c2ccc(F)cc2)[C@H](c2ccc(OCCN3CC(CF)C3)cc2)Oc2c(O)cccc21
- CLhep predicted (in vitro [1]): 9 mL/min/kg
- CLhep predicted (in vitro [2]): 27 mL/min/kg

SMILES: CC1=C(c2cccc(O)c2)[C@H](c2ccc(OCCN3CC(CF)C3)cc2)Oc2c(O)cccc21
- bioavailability [3]: 30%
- AUC/dose [4]: 0.43 µM·h
- clearance (in vivo [5]): 18 mL/min/kg
- CLhep predicted (in vitro [1]): 9 mL/min/kg
- CLhep predicted (in vitro [2]): 43 mL/min/kg
- CLhep predicted (in vitro [6]): 13 mL/min/kg
- CLhep predicted (in vitro [7]): 44 mL/min/kg
- Papp A→B (in vitro [8]): 2.4 ×10⁻⁶ cm/s

SMILES: CC1=C(c2ccc(F)cc2)[C@H](c2ccc(OCCN3CC(CF)C3)cc2)Oc2ccc(O)cc21
- CLhep predicted (in vitro [1]): 10 mL/min/kg
- CLhep predicted (in vitro [2]): 28 mL/min/kg
- CLhep predicted (in vitro [6]): 14 mL/min/kg
- CLhep predicted (in vitro [7]): 31 mL/min/kg

SMILES: CC1=C(c2ccc(F)cc2)[C@H](c2ccc(OCCN3CC(CF)C3)cc2)Oc2cc(F)c(O)cc21
- CLhep predicted (in vitro [1]): 8 mL/min/kg
- CLhep predicted (in vitro [2]): 20 mL/min/kg
- CLhep predicted (in vitro [6]): 15 mL/min/kg
- CLhep predicted (in vitro [7]): 28 mL/min/kg

SMILES: Oc1cccc(C2=Cc3cc(O)ccc3O[C@H]2c2ccc(OCCN3CC(CF)C3)cc2)c1
- CLhep predicted (in vitro [1]): 12 mL/min/kg
- CLhep predicted (in vitro [2]): 36 mL/min/kg
- CLhep predicted (in vitro [6]): 17 mL/min/kg
- CLhep predicted (in vitro [7]): 41 mL/min/kg

SMILES: CCC1=C(c2cccc(O)c2)[C@H](c2ccc(OCCN3CC(CF)C3)cc2)Oc2ccc(O)cc21
- CLhep predicted (in vitro [1]): 12 mL/min/kg
- CLhep predicted (in vitro [2]): 39 mL/min/kg
- CLhep predicted (in vitro [6]): 15 mL/min/kg
- CLhep predicted (in vitro [7]): 40 mL/min/kg

SMILES: CC1=C(c2cccc(O)c2)[C@H](c2ccc(OCCN3CC(CF)C3)cc2)Oc2ccc(O)cc21
- AUC/dose [9]: 0.04 µM·h
- clearance (in vivo [5]): 100 mL/min/kg
- bioavailability (in vivo [10]): 10%
- CLhep predicted (in vitro [1]): 12 mL/min/kg
- CLhep predicted (in vitro [2]): 45 to 46 mL/min/kg
- CLhep predicted (in vitro [6]): 16 mL/min/kg
- CLhep predicted (in vitro [7]): 45 to 46 mL/min/kg
- Papp A→B (in vitro [8]): 4.6 ×10⁻⁶ cm/s

From ChEMBL document CHEMBL4387785, “Discovery of a C-8 hydroxychromene as a potent degrader of estrogen receptor alpha with improved rat oral exposure over GDC-0927” (Bioorg Med Chem Lett, 2019)
